Drawing on patent US20260234129A1, “NOVEL IMIDAZOLE DERIVATIVE AND USE THEREOF” (PELEMED CO., LTD., priority 2023, published 2026), this text covers IC50 and GI50 for nine compounds.

Each structure is given as a SMILES string. pIC50: −log10 of the molar value.

Test [1] deals with T1, FLT3 (Homo sapiens, UniProt P36888).
T1 construct: Recombinant proteins containing FLT3 and FLT3(D835Y) domains were purchased from Promega; purchased Promega V4064
T1 sequence (P36888 610-943 limits assumed): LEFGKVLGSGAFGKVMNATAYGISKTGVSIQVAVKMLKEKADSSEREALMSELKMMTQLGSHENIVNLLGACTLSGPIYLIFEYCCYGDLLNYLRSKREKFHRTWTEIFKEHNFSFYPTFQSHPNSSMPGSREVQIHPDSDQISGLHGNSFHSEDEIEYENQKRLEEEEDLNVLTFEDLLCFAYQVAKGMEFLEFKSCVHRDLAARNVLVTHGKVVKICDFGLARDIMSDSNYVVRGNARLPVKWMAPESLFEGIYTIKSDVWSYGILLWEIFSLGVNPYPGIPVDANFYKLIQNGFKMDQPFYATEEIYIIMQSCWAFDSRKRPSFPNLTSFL
In words: ADP-Glo kinase assay FLT3 WT. It is filed as biochemical. Conditions: recombinant FLT3, 120 minutes at room temperature, read-out: Enzyme (IC50) FLT3 WT. The procedure: (§1) FLT3 activity inhibition was measured using the ADP-Glo kinase assay method (Promega, cat #V9101). The ADP-Glo kinase assay method is a luminescent ADP detection assay method that provides a homogeneous, high-throughput screening method for measuring kinase activity by quantifying the amount of ADP produced during the kinase reaction.
(§2) The assay was performed in two steps. First, after the kinase reaction, an equal volume of ADP-Glo™ reagent was added to terminate the kinase reaction and deplete any remaining ATP. Second, a kinase detection reagent was added to convert ADP to ATP, and simultaneously the newly synthesized ATP was measured via the luciferase/luciferin reaction. The light produced was measured using a luminometer.
Recombinant proteins containing FLT3 and FLT3(D835Y) domains were purchased from Promega (cat #V4064, cat #V4514), respectively. According to the manufacturer's instructions, the optimal enzyme, ATP, and substrate concentrations were optimized using the ADP-Glo™ kinase assay method (Promega, USA). […] Thereafter, ADP-Glo™ reagent (5 μl) was added and reacted for an additional 40 minutes at room temperature. Finally, the detection reagent (kinase detection reagent, 10 μl) was added, followed by reaction at room temperature for 30 minutes, and the phosphorylation of the substrate peptide was measured by detecting the luciferase signal (integration time 0.5~1 sec) using a SpectraMax ID5 reader (Molecular Devices LLC., San Jose, CA, USA).

Test [2] concerns MV4-11 cells (FLT3-ITD-expressing AML cell line). In words: Cell proliferation inhibition, Alamar Blue. It is filed as cell-based, human. Conditions: Homo sapiens, MV4-11, 72 hours of compound treatment, read-out: Cellular (GI50) MV4-11. On the procedure:
(§3) The cell proliferation inhibition experiment on acute myeloid leukemia (AML) cell lines was performed using FL3-ITD-expressing AML cell line MV4-11, BaF3-ITD-FLT3 F691L cell line, and BaF3-ITD-FLT3 D835Y cell line to test FLT3 inhibitory activity. All cell lines were human-derived cell lines, and the sources and culture conditions for each cell line are as follows.
(§4) Cell viability was assessed by a resazurin redox-based assay using the Alamar Blue Assay kit (Invitrogen, USA). Specifically, MV4-11, BaF3-ITD-FLT3-F691L, and BaF3-ITD-FLT3-D835Y cells were plated in 384-well plates at 8,000 cells in 45 μL of medium. As a negative control, dimethyl sulfoxide (DMSO) was added together with the compound. After three days (72 hours) of compound treatment, 5 μL of the Alamar Blue kit reagent was added to each well of the 384-well plates, followed by incubation at 37° C. for 2 hours in a humidified CO2 incubator. After incubation, fluorescence intensity (Flu) was measured at 544 nm and 590 nm using a SpectraMax iD3 Multi Mode Microplate Reader (Molecular Devices, ID3-STD).

The test system of test [3] is BaF3-ITD-FLT3 D835Y cell line. The experiment in a line: Cell proliferation inhibition, Alamar Blue. It is filed as cell-based. Particulars: 72 hours of compound treatment, read-out: Cellular (GI50) BaF3-ITD-FLT3 D835Y. On the procedure:
as §3, §4

Test [4] deals with BaF3-ITD-FLT3 F691L cell line. In words: Cell proliferation inhibition, Alamar Blue. Format: cell-based. Particulars: 72 hours of compound treatment, read-out: Cellular (GI50) BaF3-ITD-FLT3 F691L. The procedure: as §3, §4
The target in test [5] is T2, FLT3(D835Y) (Homo sapiens, UniProt P36888, D835Y).
T2 construct: Recombinant proteins containing FLT3 and FLT3(D835Y) domains were purchased from Promega; purchased Promega V4514
The experiment in a line: ADP-Glo kinase assay FLT3 D835Y. Format: biochemical. Particulars: recombinant FLT3(D835Y), 120 minutes at room temperature, read-out: Enzyme (IC50) FLT3 D835Y. The procedure: as §1, §2
Recombinant proteins containing FLT3 and FLT3(D835Y) domains were purchased from Promega (cat #V4064, cat #V4514), respectively. According to the manufacturer's instructions, the optimal enzyme, ATP, and substrate concentrations were optimized using the ADP-Glo™ kinase assay method (Promega, USA). […] Finally, the detection reagent (kinase detection reagent, 10 μl) was added, followed by reaction at room temperature for 30 minutes, and the phosphorylation of the substrate peptide was measured by detecting the luciferase signal (integration time 0.5~1 sec) using a SpectraMax ID5 reader (Molecular Devices LLC., San Jose, CA, USA).

With `COc1ccc2nc(-c3n[nH]c4ccc(C(=O)NCCCN(C)C)cc34)[nH]c2c1` [Example 11, N-(3-(dimethylamino)propyl)-3-(6-methoxy-1H-benzo[d]imidazol-2-yl)-1H-indazole-5-carboxamide], the pIC50 in test [1] was above 8.00. In addition, the GI50 in test [2] is below 10 nM.
In the case of `O=C(NCC1CC(F)(F)C1)c1ccc2[nH]nc(-c3nc4ccc(N5CCCC5)cc4[nH]3)c2c1` [Example 14, N-((3,3-difluorocyclobutyl)methyl)-3-(6-(pyrrolidin-1-yl)-1H-benzo[d]imidazol-2-yl)-1H-indazole-5-carboxamide], the results for the GI50 in test [2], in test [3] and in test [4] were 10 to 100 nM, 10 to 100 nM and 100 to 1000 nM, respectively.
For `NCCCNC(=O)c1ccc2[nH]nc(-c3nc4ccc(CN5CCOCC5)cc4[nH]3)c2c1` [Example 26, N-(3-aminopropyl)-3-(6-(morpholinomethyl)-1H-benzo[d]imidazol-2-yl)-1H-indazole-5-carboxamide], in test [1], the pIC50 was above 8.00. Besides, the GI50 in test [2] fell in the range of 100 to 1000 nM.
Consider `N[C@H]1CC[C@H](NC(=O)c2ccc3[nH]nc(-c4nc5ccc(-c6ccco6)cc5[nH]4)c3c2)C1` [Example 80, N-((1S,3S)-3-aminocyclopentyl)-3-(6-(furan-2-yl)-1H-benzo[d]imidazol-2-yl)-1H-indazole-5-carboxamide], for which the GI50 in test [2] is below 10 nM; in test [3] it was below 10 nM; in test [4], 10 to 100 nM.
In the case of `NCCCNC(=O)c1ccc2[nH]nc(-c3nc4ccc(C(=O)N5CCOCC5)cc4[nH]3)c2c1` [Example 21, N-(3-aminopropyl)-3-(6-(morpholine-4-carbonyl)-1H-benzo[d]imidazol-2-yl)-1H-indazole-5-carboxamide], the pIC50 in test [1] and in test [5] was above 8.00 throughout. Besides, in test [2], the GI50 was 100 to 1000 nM.
As to `O=C(NCCCC(F)(F)F)c1ccc2[nH]nc(-c3nc4ccc(N5CCCC5)cc4[nH]3)c2c1` [Example 13, 3-(6-(pyrrolidin-1-yl)-1H-benzo[d]imidazol-2-yl)-N-(4,4,4-trifluorobutyl)-1H-indazole-5-carboxamide], the concentration for 50% growth inhibition (GI50) in test [2], in test [3] and in test [4] was 10 to 100 nM throughout.
Turning to `Cc1ccc2nc(-c3n[nH]c4ccc(C(=O)NCCCN(C)C)cc34)[nH]c2c1` [Example 12, N-(3-(dimethylamino)propyl)-3-(6-methyl-1H-benzo[d]imidazol-2-yl)-1H-indazole-5-carboxamide], in test [1], the pIC50 was above 8.00. The GI50 in test [2] is below 10 nM.
Consider `N[C@H]1CC[C@H](NC(=O)c2ccc3[nH]nc(-c4nc5ccc(N6CCCCC6)cc5[nH]4)c3c2)C1` [Example 31, N-((1S,3S)-3-aminocyclopentyl)-3-(6-(piperidin-1-yl)-1H-benzo[d]imidazol-2-yl)-1H-indazole-5-carboxamide], for which the pIC50 in test [1] is above 8.00. Further, the results for the GI50 in test [2], in test [3] and in test [4] were below 10 nM, below 10 nM and 10 to 100 nM, respectively.
On to `O=C(NCC1CNC1)c1ccc2[nH]nc(-c3nc4ccc(-c5ccoc5)cc4[nH]3)c2c1` [Example 75, N-(azetidin-3-ylmethyl)-3-(6-(furan-3-yl)-1H-benzo[d]imidazol-2-yl)-1H-indazole-5-carboxamide], for which the GI50 is 10 to 100 nM in test [2], below 10 nM in test [3] and 10 to 100 nM in test [4].
